# Legend:
# Assay in all cases: relative viability (nuclei count vs DMSO), 5 days (fraction); higher = more cells survive
# [1] = compound: CC[C@@H](C)CNCC(=O)N1CCC2=C([C@@H]1COC3=CC=CC(=C3)C)C=CS2 [RU-SKI 43] + O=C(c1cc(Cc2n[nH]c(=O)c3ccccc23)ccc1F)N1CCN(C(=O)C2CC2)CC1 [Olaparib] (partner 8 µM)
# Summary of the method: (§1)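 After 5 days of treatment, lung cancer cells in 1536-well plates were fixed and stained in a single step (final 0.05% Triton X-100, 1% formaldehyde, 1 ug/ml Hoechst) and their nuclei counted on 4× images. Treatment had been applied by pin tool the day after seeding as one drug alone or as a fixed anchor-drug dose with five library-drug doses (not always all listed) in √10 steps. Relative viability is the nuclei count of treated wells divided by that of vehicle wells, and values are medians of duplicate plates.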
# [2] = compound: CCc1c2c(nc3ccc(OC(=O)N4CCC(N5CCCCC5)CC4)cc13)-c1cc3c(c(=O)n1C2)COC(=O)[C@]3(O)CC [Irinotecan] + Cc1nc(NC(=O)N2CCC[C@H]2C(N)=O)sc1-c1ccnc(C(C)(C)C(F)(F)F)c1 [Alpelisib] (partner 2 µM)
# Summary of the method: as §1
# [3] = compound: CC[C@@H](C)CNCC(=O)N1CCC2=C([C@@H]1COC3=CC=CC(=C3)C)C=CS2 [RU-SKI 43] + C[C@]1(O)C[C@@H](c2nc(-c3ccc4ccc(-c5ccccc5)nc4c3)c3c(N)nccn32)C1 [Linsitinib] (partner 1 µM)
# Summary of the method: as §1
# [4] = compound: CCc1c2c(nc3ccc(OC(=O)N4CCC(N5CCCCC5)CC4)cc13)-c1cc3c(c(=O)n1C2)COC(=O)[C@]3(O)CC [Irinotecan] + Cc1nc(Nc2ncc(C(=O)Nc3c(C)cccc3Cl)s2)cc(N2CCN(CCO)CC2)n1 [Dasatinib] (partner 0.075 µM)
# Summary of the method: as §1
Cell Line,relative viability ([1]; first compound 0.1 µM),relative viability ([1]; first compound 0.3162 µM),relative viability ([1]; first compound 3.162 µM),relative viability ([1]; first compound 10 µM),relative viability ([2]; first compound 0.6325 µM),relative viability ([2]; first compound 2 µM),relative viability ([2]; first compound 6.325 µM),relative viability ([2]; first compound 20 µM),relative viability ([3]; first compound 0.1 µM),relative viability ([3]; first compound 0.3162 µM),relative viability ([3]; first compound 1 µM),relative viability ([3]; first compound 10 µM),relative viability ([4]; first compound 0.6325 µM),relative viability ([4]; first compound 2 µM),relative viability ([4]; first compound 6.325 µM),relative viability ([4]; first compound 20 µM),relative viability ([1]; first compound 1 µM),relative viability ([3]; first compound 3.162 µM)
NCI-H650,0.404,0.517,0.38,0.406,0.889,0.432,0.229,0.323,0.918,0.696,1.13,0.911,0.34,0.396,0.215,0.245,–,–
NCI-H2023,0.457,0.478,0.416,0.526,0.607,0.468,0.202,0.0912,0.597,0.748,0.661,0.697,0.595,0.67,0.241,0.0645,0.44,0.675
NCI-H1563,–,–,–,–,0.86,0.912,0.875,0.654,1.2,1.2,1.11,1.13,0.392,0.458,0.44,0.514,–,1.09
LCLC-103H,0.748,0.865,0.829,0.816,0.812,0.345,0.33,0.368,1.04,1.11,1.05,1.15,0.413,0.439,0.324,0.275,0.882,1.2
HCC-15,0.71,0.874,0.772,0.627,0.478,0.239,0.144,0.173,0.964,1.1,0.988,0.882,–,0.523,0.196,0.123,0.755,0.946
NCI-H838,0.842,0.798,0.798,0.738,1.28,0.962,0.354,0.295,1.05,1.22,1.07,1,0.213,0.259,0.249,0.247,0.806,1
NCI-H2009,0.659,0.803,0.698,0.584,0.838,0.591,0.26,0.135,1.2,1.23,1.24,1.16,0.284,0.287,0.182,0.116,0.735,1.21
NCI-H2228,0.6,0.858,0.638,0.654,0.791,0.598,0.431,0.408,0.858,0.507,0.828,0.427,0.443,0.481,0.318,0.246,0.642,0.885
NCI-H460,0.389,0.702,0.49,0.334,0.461,0.339,0.0811,0.0821,0.789,1.84,1.08,0.695,0.402,0.301,0.0681,0.0459,0.47,1.02
NCI-H522,0.661,0.641,0.707,0.601,–,–,–,–,–,–,–,–,0.639,0.868,0.485,0.532,0.596,–
NCI-H1703,0.439,0.456,0.452,0.248,0.305,0.482,0.385,0.136,0.653,1.02,0.545,0.503,–,–,–,–,0.407,0.636
NCI-H1793,0.744,0.558,0.833,0.719,–,0.668,0.383,0.259,0.98,0.959,0.988,0.809,–,0.385,0.252,0.234,1.02,0.928
NCI-H596,0.719,0.548,0.712,0.709,0.639,0.548,0.483,0.557,1.14,1.07,1.08,0.96,0.576,0.765,0.703,0.633,0.654,1.02
NCI-H2347,0.547,0.499,0.504,0.569,0.858,0.763,0.482,0.464,1,1.19,1.07,1.01,0.307,0.242,0.245,0.372,0.553,0.94
NCI-H1650,0.654,1.03,0.919,0.709,–,–,–,–,–,–,–,–,–,0.401,0.304,0.177,0.823,–
NCI-H1648,1.02,1.06,0.91,0.835,–,–,–,–,–,–,–,–,–,–,–,–,0.614,–
NCI-H1299,0.948,0.995,0.99,0.959,0.919,0.918,0.801,0.36,1.03,1.2,1.1,0.965,–,–,–,–,1.04,1.04
IA-LM,0.877,0.87,0.732,0.812,0.614,0.408,0.189,0.0631,0.623,0.563,0.512,0.577,–,–,–,–,0.976,0.552
SW 900,0.94,0.952,0.814,0.806,–,–,–,–,–,–,–,–,0.688,0.707,0.509,0.488,0.821,–
NCI-H2342,0.387,–,0.428,0.358,–,–,–,–,–,–,–,–,0.304,0.278,0.299,0.377,0.44,–
ChaGo-K-1,0.391,0.446,0.403,0.383,–,–,–,–,–,–,–,–,0.351,0.474,0.236,0.178,0.413,–
A549,0.362,0.462,0.278,0.291,0.776,0.642,0.207,0.0613,0.73,0.762,0.656,0.613,–,–,–,–,0.277,0.596
